Source: ChEMBL document CHEMBL5537164, “Discovery of Potent, Orally Bioavailable, Tricyclic NLRP3 Inhibitors” (J Med Chem, 2024)
pIC50: −log10 of the molar value. ≈ marks a conversion by molar mass, not a printed value.

Tests used:
[1] = Protein binding in rat plasma; format: ADME, cell-free; settings: read-out: PPB (converted)
[2] = In vivo inhibition of NLRP3 in LPS/ATP-induced C57BL/6 mouse model of acute peritonitis assessed as reduction in IL-1beta level at 100 mg/kg, po preadministered with compound for 1 hrs followed by LPS stimulation for 2 hrs and measured 15 mins after ATP addition by ELISA relative to control; format: functional; settings: time 3.25 hrs
[3] = Drug concentration in blood of C57BL/6 mouse model of acute peritonitis at 100 mg/kg, po preadministered with compound for 1 hrs followed by LPS stimulation for 2 hrs and measured 15 mins after ATP addition by HPLC-MS/MS analysis; format: ADME, organism-based; settings: whole blood, read-out: Ct
[4] = target: Synaptic vesicular amine transporter (Homo sapiens, UniProt Q05940); assay: Inhibition of VMAT-2 (unknown origin)
Sequence of Synaptic vesicular amine transporter (Q05940 whole entry): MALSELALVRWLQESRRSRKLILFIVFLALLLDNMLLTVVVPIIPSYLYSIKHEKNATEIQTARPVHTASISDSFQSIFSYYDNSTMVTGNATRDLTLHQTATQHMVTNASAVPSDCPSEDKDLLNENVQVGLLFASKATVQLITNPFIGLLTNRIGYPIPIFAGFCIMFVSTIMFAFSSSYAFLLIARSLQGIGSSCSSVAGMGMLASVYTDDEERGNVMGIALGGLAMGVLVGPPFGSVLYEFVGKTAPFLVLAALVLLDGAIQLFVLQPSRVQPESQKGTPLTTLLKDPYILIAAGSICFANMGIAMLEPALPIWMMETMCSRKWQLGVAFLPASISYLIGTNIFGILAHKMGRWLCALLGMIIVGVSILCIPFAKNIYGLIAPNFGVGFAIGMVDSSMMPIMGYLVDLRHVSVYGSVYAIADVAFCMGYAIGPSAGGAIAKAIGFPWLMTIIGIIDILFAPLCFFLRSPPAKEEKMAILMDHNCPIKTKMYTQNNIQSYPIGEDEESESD

[5] = Clearance in dog liver microsomes; format: ADME, Canis lupus familiaris, Microsome; settings: read-out: CLH
[6] = Volume of distribution at steady state in Sprague-Dawley rat at 10 mg/kg, po or 1 mg/kg, iv measured after 24 hrs by LC-MS/MS analysis; format: ADME, organism-based; settings: in vivo
[7] = Protein binding in mouse plasma; format: ADME, cell-free; settings: read-out: PPB (converted)
[8] = Thermodynamic solubility of compound at pH 6.8; format: physicochemical; settings: buffer, read-out: Therm_solubility
[9] = Protein binding in dog plasma; format: ADME, cell-free, Canis lupus familiaris; settings: read-out: PPB (converted)
[10] = Dose normalized AUC in Sprague-Dawley rat at 10 mg/kg, po measured after 24 hrs by LC-MS/MS analysis; format: ADME, organism-based; settings: in vivo
[11] = Equilibrium solubility of compound in DMSO at pH 6.8 by shake flask method; format: physicochemical
[12] = Drug concentration in blood of C57BL/6 mouse model of acute peritonitis at 50 mg/kg, po preadministered with compound for 1 hrs followed by LPS stimulation for 2 hrs and measured 15 mins after ATP addition by HPLC-MS/MS analysis; format: ADME, organism-based; settings: whole blood, read-out: Ct
[13] = Drug concentration in blood of C57BL/6 mouse model of acute peritonitis at 30 mg/kg, po preadministered with compound for 1 hrs followed by LPS stimulation for 2 hrs and measured 15 mins after ATP addition by HPLC-MS/MS analysis; format: ADME, organism-based; settings: whole blood, read-out: Ct

fraction unbound [1]: 0.22
concentration at 3.25 h [3]: 3.67 µM
pIC50 [4]: 5.19
microsomal CLint [5]: 39 µL/min/mg
Vdss [6]: 5.5 L/kg
fraction unbound [7]: 0.03
solubility thermodynamic [8]: 0.159 mg/mL (≈ 363 µM)
fraction unbound [9]: 0.17
AUC/dose [10]: 712 nmol·h/L
solubility [11]: > 1000 µM
concentration at 3.25 h [12]: 1.68 µM
concentration at 3.25 h [13]: 1.06 µM
Compound: CN1CCC[C@@H](NC(=O)Cn2nc(C(C)(C)O)n3c(cc4sc(Cl)cc43)c2=O)C1
inhibition in vivo at 100 mg/kg [2]: 98%
